These results are taken from patent US9568466B2, “In vitro assay for predicting renal proximal tubular cell toxicity” (priority 2012, dated 2017).

One data set relates to human primary renal proximal tubular cells (HPTC). The experiment in a line: HPTC exposed to test compound, nuclear staining and F-actin detection, morphology and cell numbers. Conditions: HPTC isolated from fresh human kidney samples; 0.2 mg/ml; 16 hours.
In the case of Gentamicin, the “cell numbers (number of cell nuclei)” value is on record as “decrease in cell numbers” and the “morphological changes (F-actin)” value is “morphological changes”.

The next data set relates to renal proximal tubule.
Experiment: not given
Conditions: in vivo; cited from earlier work.
Take `NC[C@H]1O[C@H](O[C@H]2[C@H](O)[C@@H](O[C@H]3O[C@H](CO)[C@@H](O)[C@H](N)[C@H]3O)[C@H](N)C[C@@H]2N)[C@H](N)C[C@@H]1O` [Compound 2, Tobramycin]: the “nephrotoxicity in humans / direct damage of the renal proximal tubule” value (“nephrotoxicity in humans / direct damage” for short) is “nephrotoxic in humans and damage directly the renal proximal tubule”. As to `CO[C@H]1/C=C/O[C@@]2(C)Oc3c(C)c(O)c4c(O)c(c(/C=N/N5CCN(C)CC5)c(O)c4c3C2=O)NC(=O)/C(C)=C\C=C\[C@H](C)[C@H](O)[C@@H](C)[C@@H](O)[C@@H](C)[C@H](OC(C)=O)[C@@H]1C` [Compound 3, Rifampicin], the “nephrotoxicity in humans / direct damage” value is “nephrotoxic in humans and damage directly the renal proximal tubule”. Turning to `COc1ccc(C[C@H](N)C(=O)N[C@H]2[C@@H](O)[C@H](n3cnc4c(N(C)C)ncnc43)O[C@@H]2CO)cc1` [Compound 5, Puromycin], the “nephrotoxicity in humans / direct damage” value was “nephrotoxic in humans and damage directly the renal proximal tubule”. On to `CC(=O)OCC1=C(C(=O)O)N2C(=O)[C@@H](NC(=O)CCC[C@@H](N)C(=O)O)[C@H]2SC1` [Compound 6, Cephalosporin C], for which the “nephrotoxicity in humans / direct damage” value was “nephrotoxic in humans and damage directly the renal proximal tubule”. Consider `O=c1[nH]cc(F)c(=O)[nH]1` [Compound 7, 5-Fluorouracil], for which the “nephrotoxicity in humans / direct damage” value is “nephrotoxic in humans and damage directly the renal proximal tubule”. On to `O=P1(NCCCl)OCCCN1CCCl` (stereo not shown) [Compound 9, Ifosfamide], for which the “nephrotoxicity in humans / direct damage” value was “nephrotoxic in humans and damage directly the renal proximal tubule”.

As for `C[n+]1ccc(-c2cc[n+](C)cc2)cc1` [Compound 10, Paraquat], the “nephrotoxicity in humans / direct damage” value was “nephrotoxic in humans and damage directly the renal proximal tubule”. As to `[Ge+4].[O-2].[O-2]` [Compound 15, Germanium(IV) oxide], the “nephrotoxicity in humans / direct damage” value is “nephrotoxic in humans and damage directly the renal proximal tubule”. Consider `[Cl][Au]` [Compound 16, Gold(I) chloride], for which the “nephrotoxicity in humans / direct damage” value is “nephrotoxic in humans and damage directly the renal proximal tubule”.

`C=CC[C@@H]1/C=C(\C)C[C@H](C)C[C@H](OC)[C@H]2O[C@@](O)(C(=O)C(=O)N3CCCC[C@H]3C(=O)O[C@H](/C(C)=C/[C@@H]3CC[C@@H](O)[C@H](OC)C3)[C@H](C)[C@@H](O)CC1=O)[C@H](C)C[C@@H]2OC` [Compound 19, Tacrolimus]: the “nephrotoxicity in humans / direct damage” value was “nephrotoxic in humans and damage directly the renal proximal tubule”. Take `CC1=C2C(=CO[C@H](C)[C@H]2C)C(O)=C(C(=O)O)C1=O` [Compound 21, Citrinin]: the “nephrotoxicity in humans / direct damage” value was “nephrotoxic in humans and damage directly the renal proximal tubule”.

For the molecule `CCOc1ccc(NC(C)=O)cc1` [Compound 24, Phenacetin], the “nephrotoxicity in humans / direct damage” value is “nephrotoxic in humans, but do not damage directly the renal proximal tubule”. With `[Cl-].[Li+]` [Compound 28, Lithium chloride], the “nephrotoxicity in humans / direct damage” value is “nephrotoxic in humans, but do not damage directly the renal proximal tubule”. Take `Cl[C@H]1[C@H](Cl)[C@@H](Cl)[C@@H](Cl)[C@H](Cl)[C@H]1Cl` [Compound 29, Lindane]: the “nephrotoxicity in humans / direct damage” value is “nephrotoxic in humans, but do not damage directly the renal proximal tubule”. On to `OCCO` [Compound 30, Ethylene glycol], for which the “nephrotoxicity in humans / direct damage” value is “nephrotoxic in humans, but do not damage directly the renal proximal tubule”. For `CC(C)[C@H](N)C(=O)OCCOCn1cnc2c(=O)[nH]c(N)nc21` [Compound 31, Valacyclovir], the “nephrotoxicity in humans / direct damage” value is “nephrotoxic in humans, but do not damage directly the renal proximal tubule”. Turning to `CCC[C@@H]1C[C@@H](C(=O)N[C@@H]([C@H]2O[C@H](SC)[C@H](O)[C@@H](O)[C@H]2O)[C@@H](C)O)N(C)C1` [Compound 32, Lincomycin], the “nephrotoxicity in humans / direct damage” value is recorded as “nephrotoxic in humans, but do not damage directly the renal proximal tubule”. For the molecule `NCC(=O)O` [Compound 35, Glycine], the “nephrotoxicity in humans / direct damage” value was “non-nephrotoxic in humans”. Turning to `C[C@@H]1C[C@H]2[C@@H]3CCC4=CC(=O)C=C[C@]4(C)[C@@]3(F)[C@@H](O)C[C@]2(C)[C@@]1(O)C(=O)CO` [Compound 36, Dexamethasone], the “nephrotoxicity in humans / direct damage” value is recorded as “non-nephrotoxic in humans”. On to `COc1ccc2[nH]cc(CCNC(C)=O)c2c1` [Compound 37, Melatonin], for which the “nephrotoxicity in humans / direct damage” value is listed as “non-nephrotoxic in humans”. Consider `N[C@@H](Cc1ccc(O)c(O)c1)C(=O)O` [Compound 38, Levodopa (DOPA)], for which the “nephrotoxicity in humans / direct damage” value is given as “non-nephrotoxic in humans”.

With `N[C@@H](Cc1cc(I)c(Oc2ccc(O)c(I)c2)c(I)c1)C(=O)O` [Compound 39, Triiodothyronine], the “nephrotoxicity in humans / direct damage” value was “non-nephrotoxic in humans”. Turning to Gentamicin, the “nephrotoxicity in humans / direct damage” value was “nephrotoxic in humans and damage directly the renal proximal tubule”.
